The subject of data set [1] is CHL-GLP-1 tumor-bearing mouse. Also on record: species or system mice. The following applies: in vivo. As to the method: Animal studies complied with Swiss laws on animal protection and husbandry and were approved by the Veterinary office of the Canton Zurich. After an acclimatization period, tumor xenografts were produced in 6-week old female CD1 nu/nu mice by subcutaneous injection in both shoulder regions of CHL-GLP-1 receptor positive cells (8 × 10^6 cells/mouse in PBS (100 μL, pH 7.4)) under 2%–3% isoflurane anaesthesia. Ex vivo biodistribution experiments were conducted three weeks after the inoculation. PET imaging experiments were performed five weeks after the inoculation. Two tumor bearing mice were injected with ^18F-2 (13.0 MBq in 80 and 100 μL PBS containing ≤ 5% ethanol, 1.3 and 1.9 nmol) via lateral tail vein. Anaesthesia was induced with 5% isoflurane (Abbott) in O2/air 5 min before PET/CT acquisition. Depth of anaesthesia and temperature were controlled as described by Honer et al. (Honer et al. [2004]). PET/CT scans were performed under 2–3% isoflurane anaesthesia with a GE VISTA eXplore PET/CT tomograph. […] Standardized uptake values (SUV) were calculated as a ratio of tissue radioactivity concentration (kBq/cm^3) and injected activity dose per gram body weight (kBq/g) at the scan start. Percentage injected dose per gram of tissue (%ID/g) was calculated using SUV values: SUV / body weight [g] × 100% = %ID/g.

Data set [2] relates to nude mice bearing CHL-GLP-1 receptor positive tumor xenografts. The following applies: mouse, in vivo. As to the method:
Animal studies complied with Swiss laws on animal protection and husbandry and were approved by the Veterinary office of the Canton Zurich. After an acclimatization period, tumor xenografts were produced in 6-week old female CD1 nu/nu mice by subcutaneous injection in both shoulder regions of CHL-GLP-1 receptor positive cells (8 × 10^6 cells/mouse in PBS (100 μL, pH 7.4)) under 2%–3% isoflurane anaesthesia. Ex vivo biodistribution experiments were conducted three weeks after the inoculation. PET imaging experiments were performed five weeks after the inoculation.
Tumor-bearing mice (n = 12) were injected intravenously with ^18F-2 (200 kBq in 100 μL PBS, 1.3 pmol, 5.9 ng). The animals were sacrificed at 30 min, 1 h and 2 h post injection (n = 4 for each time point). To determine specific binding an additional group of tumor-bearing mice (n = 4) received nonradioactive precursor 1 (100 μg in 100 μL PBS, 22 nmol) co-injected with ^18F-2 (266 kBq in 100 μL PBS, 1.7 pmol, 7.8 ng) and were sacrificed 1 h post injection. Organs and tissues of interest were collected and weighed, and the amount of radioactivity was determined in a γ-counter (1480 Wizard, PerkinElmer) to calculate percentage uptake (% injected dose per gram of tissue). Statistical significance was calculated using Student t-test (two populations, unpaired). P values of less than 0.05 were considered statistically significant.

Data set [3] deals with dipeptidyl peptidase IV (DPP4). Conditions: degradation by DPP4; ref Pauly et al. [1999]; cited from earlier work. The source says:
The glucagon-like peptide type 1 receptor (GLP-1R) is overexpressed in virtually all benign insulinoma with high incidence and density and is considered a valuable target for the efficient visualisation by radiotracers (Reubi and Waser [2003]; Wild et al. [2011]; Wild et al. [2008]; Korner et al. [2012]). The natural ligand released from ileal L-cells, glucagon-like peptide 1 (GLP-1) stimulates the insulin secretion in β-cells by binding to the GLP-1R.

Consider “His-Gly-Glu-Gly-Thr-Phe-Thr-Ser-Asp-Leu-Ser-Lys-Gln-Nle-Glu-Glu-Glu-Ala-Val-Arg-Leu-Phe-Ile-Glu-Trp-Leu-Lys-Asn-Gly-Gly-Pro-Ser-Ser-Pro-Ala-Pro-Pro-Pro-Ser-Lys-(N ^6 –2-(4-(di-tert-butylfluorosilyl)phenyl)acetyl)-NH 2 [^18F-2]”, for which, in data set [1], the “Tumor to background ratio” value is given as ~ 3. Further, the “tumor to blood ratio” value in data set [2] is recorded as 4 ± 2.

As to “GLP-1: natural ligand of GLP-1R released from ileal L-cells”, the metabolic half-life entry in data set [3] is recorded as “less than 2 min”.

The values above are taken from paper PMC5824708 (EJNMMI Radiopharmacy and Chemistry, 2018).
